Reference: patent publication US7935708B2, “Dihydropyrazolopyrimidinone derivatives” (MSD K.K., priority 2006, dated 2011)

Columns and labels:
[1] = tested on: Cdc2 (Cdk1) tyrosine 15 phosphorylation in WiDr cells; assay: Cdc2 (Cdk1) tyrosine 15-phosphorylation-inhibitory effect in gemcitabine-treated WiDr cells (ELISA); assay type: cell-based; conditions: Homo sapiens, gemcitabine 100 nM 24 hours, then test compound with nocodazole 8 hours, read-out: Cdc2-Y15 Phosphorylation-Inhibitory Effect (WiDr, + gemcitabine) (EC50)
Excerpt: (§1) Pharmaceutical Text 2 (Method of Determining Drug Potency in Cells (Cdc2 (Cdk1) Tyrosine 15-Phosphorylation-Inhibitory Effect))
(§2) Fetal bovine serum (FBS) was obtained from Morgate; media RPMI1640 and DMEM were from Invitrogen; camptothecin was from Sigma; gemcitabine was from Nippon Eli Lilly; nocodazole and protease inhibitor cocktail were from Sigma; rabbit anti-Cdc2 antibody and mouse anti-Cdc2 antibody were from Santa Cruz Biotechnology; rabbit anti-tyrosine 15-phosphorylated Cdc2 antibody and horseradish peroxidase-labeled anti-mouse IgG antibody were from Cell Signaling Technology; sure blue reserve TMB peroxidase substrate was from Kirkegaard and Perry Laboratories.
(§3) Human non-small cell lung cancer cells (NCI-H1299) and human colon cancer cells (WiDr) were obtained from American Type Culture Collection (ATCC).
(§4) c) Method of Effect Determination:
In the method of using WiDr cells, the cells were suspended in DMEM containing 10% FBS, and the cell suspension was applied to a 96-well Nunclondelta-processed plastic plate in an amount of 2000 cells/100 μL/well, in which the cells were incubated overnight in 5% CO2-95% air at 37° C. Gemcitabine was dissolved in PBS, and diluted with DMEM containing 10% FBS, and then this was applied to the plate on which the cells had been previously sowed, in an amount of 50 μL/well in such a manner that the final concentration of gemcitabine could be 100 nM. Then, the cells were incubated for 24 hours at 37° C. in 5% CO2-95% air. The test compound was stepwise diluted with DMSO, then diluted with 1200 nM nocodazole-containing DMEM containing 10% FBS, and applied to the plate on which the gemcitabine-treated cells had been sowed, in an amount of 50 μL/well. The cells were incubated for 8 hours at 37° C. in 5% CO2-95% air, then the culture was removed, and a cytolytic buffer was added to the plate in an amount of 100 μL/well, shaken at 4° C. for 2 hours, then frozen at −80° C., and melted to give a cell solution. Cdc2 and tyrosine 15-phosphorylated Cdc2 in the cell solution were determined through ELISA, and the ratio of tyrosine 15-phosphorylated Cdc2 to Cdc2 was calculated to obtain the 50% phosphorylation-inhibitory concentration of the test compound to the cells (EC50, nM). Cdc2 was determined through ELISA as follows: A rabbit anti-Cdc2 antibody solution, which had been diluted 200-fold with 50 mM carbonate-bicarbonate buffer (pH 9.6), was applied to a 96-well maxisorp plastic plate in an amount of 50 μL/well, and statically kept overnight at 4° C. so as to fix the antibody on the plate. Next, this was washed three times with PBS, and 5% BSA/PBS was added thereto in an amount of 300 μL/well, and statically kept at room temperature for 2 hours, and then again washed three times with PBS. A mouse anti-Cdc2 antibody solution that had been diluted 100-fold with 1% BSA/TBS-T was added to it in an amount of 50 μL/well, and the cell solution was added thereto in an amount of 10 μL/well and statically kept overnight at 4° C. Next, this was washed three times with 0.1% BSA/TBS-T, and then a horseradish peroxidase-labeled anti-mouse IgG antibody solution that had been diluted 2000-fold with 1% BSA/TBS-T was added thereto in an amount of 70 μL/well, and statically kept at room temperature for 3 hours. Finally, this was washed five times with 0.1% BSA/TBS-T, then a substrate of sure blue reserve TMB peroxidase was added to it in an amount of 100 μL/well, and left for coloration in a dark place at room temperature for 15 minutes. Then, 1 M hydrochloric acid was added to it in an amount of 100 μL/well to stop the reaction, and this was analyzed through colorimetry. […]

[2] = tested on: Cdc2 (Cdk1) tyrosine 15 phosphorylation in NCI-H1299 cells; assay: Cdc2 (Cdk1) tyrosine 15-phosphorylation-inhibitory effect in camptothecin-treated NCI-H1299 cells (ELISA); assay type: cell-based; conditions: Homo sapiens, camptothecin 200 nM 16 hours, then test compound with nocodazole 8 hours, read-out: Cdc2-Y15 Phosphorylation-Inhibitory Effect (H1299, + camptothecin) (EC50)
Excerpt: as §1, §2, §3, §4
In the method of using NCI-H1299 cells, the cells were suspended in RPMI1640 containing 10% FBS, and the cell suspension was applied to a 96-well Nunclondelta-processed plastic plate (bought from Nunc), in an amount of 2000 cells/100 μL/well, in which the cells were incubated overnight in 5% CO2-95% air at 37° C. Camptothecin was dissolved in dimethylsulfoxide (DMSO), and diluted with RPMI1640 containing 10% FBS, and then this was applied to the plate on which the cells had been previously sowed, in an amount of 50 μL/well in such a manner that the final concentration of camptothecin could be 200 nM. Then, the cells were incubated for 16 hours at 37° C. in 5% CO2-95% air. The test compound was stepwise diluted with DMSO, then diluted with 4000 nM nocodazole-containing RPMI1640 containing 10% FBS, and applied to the plate on which the camptothecin-treated cells had been sowed, in an amount of 50 μL/well. The cells were incubated for 8 hours at 37° C. in 5% CO2-95% air, then the medium was removed, and a cytolytic buffer was added to the plate in an amount of 100 μL/well, shaken at 4° C. for 2 hours, then frozen at −80° C., and melted to give a cell solution. Cdc2 and tyrosine 15-phosphorylated Cdc2 in the cell solution were determined through enzyme-linked immunosorbent assay (ELISA), and the ratio of tyrosine 15-phosphorylated Cdc2 to Cdc2 was calculated to obtain the 50% phosphorylation-inhibitory concentration of the test compound to the cells (EC50, nM). The cytolytic buffer used herein is an aqueous solution containing 20 mM Hepes (pH 7.5), 150 mM sodium chloride, 1 mM disodium ethylenediaminetetraacetate, 0.1% polyoxyethylene (10) octylphenyl ether, 1% protease inhibitor cocktail, 1 mM dithiothreitol, 2 mM sodium orthovanadate, 10 mM sodium fluoride and 10 mM glycerol diphosphate. Cdc2 was determined through ELISA as follows: A rabbit anti-Cdc2 antibody solution, which had been diluted 200-fold with 50 mM carbonate-bicarbonate buffer (pH 9.6), was applied to a 96-well maxisorpimmuno plate (bought from Nunc), in an amount of 50 μL/well, and statically kept overnight at 4° C. so as to fix the antibody on the plate. Next, this was washed three times with phosphate-buffered saline (PBS), and 5% bovine serum albumin-containing PBS (5% BSA/PBS) was added thereto in an amount of 300 μL/well, and statically kept at room temperature for 2 hours, and then again washed three times with PBS. A mouse anti-Cdc2 antibody solution that had been diluted 100-fold with 0.05% polyoxyethylene sorbitan monolaurate and 1% BSA-containing Tris-HCl-buffered saline (1% BSA/TBS-T) was added to it in an amount of 50 μL/well, and the cell solution was added thereto in an amount of 5 μL/well and statically kept overnight at 4° C. Next, this was washed three times with 0.05% polyoxyethylene sorbitan monolaurate and 0.1% BSA-containing Tris-HCl-buffered saline (0.1% BSA/TBS-T), and then a horseradish peroxidase-labeled anti-mouse IgG antibody solution that had been diluted 2000-fold with 1% BSA/TBS-T was added thereto in an amount of 70 μL/well, and statically kept at room temperature for 3 hours. […]

EC50 [1] [nM]	EC50 [2] [nM]	Compound
130	61	C=CCn1c(=O)c2cnc(Nc3ccc(N4CCN(C)CC4)c(CO)c3)nc2n1-c1ccsc1 [Example 3, 2-allyl-6-{[3-(hydroxymethyl)-4-(4-methylpiperazin-1-yl)phenyl]amino}-1-(3-thienyl)-1,2-dihydro-3H-pyrazolo[3,4-d]pyrimidin-3-one]
86	79	C=CCn1c(=O)c2cnc(Nc3ccc(N4CCN(C)CC4)cc3)nc2n1-c1cccc(N2CCN(C)C2=O)n1 [Example 148, 2-allyl-1-[6-(3-methyl-2-oxoimidazolidin-1-yl)pyridin-2-yl]-6-{[4-(4-methylpiperazin-1-yl)phenyl]amino}-1,2-dihydro-3H-pyrazolo[3,4-d]pyrimidin-3-one]
